Test system: patients after acute myocardial infarction
Assay: Life quality, Seattle Angina Questionnaire (SAQ), same clinical trial
Format: in vivo, human
Excerpt: 3508 patients who were in accordance with the diagnostic standards of AMI for 28 days to 2 years and differentiated as Qi deficiency and blood stagnation syndrome by TCM were studied. 0.5 g Chinese medicine composition prepared by the method of EXAMPLE 1 (Coded as QSYQ) was administrated half an hour after meal, 3 times per day.
There were 19 questions in the Seattle angina questionnaire (SAQ), including 5 parts: physical limitation (PL), anginal stability (AS), anginal frequency (AF), treatment satisfaction (TS) and disease perception (DP). After being given necessary explanation by doctors, the questions were answered independently by patients.
They included the overall survival time, angina pectoris score, TCM symptom score and life quality score, where angina pectoris score, TCM symptom score and life quality score were evaluated at randomization, in 1st, 3rd, 6th, 9th, 12th month after treatment and 18th month after follow-up.
All evaluation results of SAQ were described during the period of observation, and Wilcoxon rank sum test was used for inter-group comparison.
The evaluation results in the SAQ were depicted in different observations, and inter-group comparison was tested by Wilcoxon Rank-sum test.

In the case of CC(=O)Oc1ccccc1C(=O)O [Control group, aspirine], the “SAQ Question 1-5: Slightly limited, percent of patients” value (12 months after treatment, PP) is reported as “(29.70%)”, the “SAQ Question 1-9: Mildly limited, % of cases” value (12 months after treatment, PP) is reported as “(20.07%)” and the “SAQ Question 1-9: Mildly limited, cases” value (12 months after treatment, PP) is reported as 278. For the same compound, the “SAQ Question 1-9: Moderately limited, % of cases” value (12 months after treatment, PP) was “(20.87%)”, the “SAQ Question 1-9: Moderately limited, cases” value (12 months after treatment, PP) was 289 and the “SAQ Question 1-9: Not limited, % of cases” value (12 months after treatment, PP) was “(5.05%)”. For the same compound, the “SAQ Question 1-9: Not limited, cases” value (12 months after treatment, PP) was 70, the “SAQ Question 1-9: Other reasons, % of cases” value (12 months after treatment, PP) was “(6.28%)” and the “SAQ Question 1-9: Other reasons, cases” value (12 months after treatment, PP) was 87. For the same compound, the “SAQ Question 1-9: Severely limited, % of cases” value (12 months after treatment, PP) was “(29.75%)”, the “SAQ Question 1-9: Severely limited, cases” value (12 months after treatment, PP) was 412 and the “SAQ Question 1-9: Slightly limited, % of cases” value (12 months after treatment, PP) was “(17.98%)”. For the same compound, the “SAQ Question 1-9: Slightly limited, cases” value (12 months after treatment, PP) was 249, the “SAQ 2nd question: Clearly increased, % of cases” value (Baseline, FAS) was “(3.17%)” and the “SAQ 2nd question: Clearly increased, cases” value (Baseline, FAS) was 55. The “SAQ 2nd question: Clearly reduced, % of cases” value (Baseline, FAS) was “(12.46%)”, the “SAQ 2nd question: Clearly reduced, cases” value (Baseline, FAS) was 216 and the “SAQ 2nd question: Same, % of cases” value (Baseline, FAS) was “(62.09%)”. The “SAQ 2nd question: Same, cases” value (Baseline, FAS) was 1076, the “SAQ 2nd question: Slightly increased, % of cases” value (Baseline, FAS) was “(6.92%)” and the “SAQ 2nd question: Slightly increased, cases” value (Baseline, FAS) was 120. For the same compound, the “SAQ 2nd question: Slightly reduced, % of cases” value (Baseline, FAS) was “(15.35%)”, the “SAQ 2nd question: Slightly reduced, cases” value (Baseline, FAS) was 266 and the “SAQ 3rd question: 1-2 times per week, % of cases” value (Baseline, FAS) was “(15.35%)”. For the same compound, the “SAQ 3rd question: 1-2 times per week, cases” value (Baseline, FAS) was 266, the “SAQ 3rd question: 1-3 times per day, % of cases” value (Baseline, FAS) was “(6.92%)” and the “SAQ 3rd question: 1-3 times per day, cases” value (Baseline, FAS) was 120. For the same compound, the “SAQ 3rd question: <1 time per week, % of cases” value (Baseline, FAS) was “(12.46%)”, the “SAQ 3rd question: <1 time per week, cases” value (Baseline, FAS) was 216 and the “SAQ 3rd question: No onset, % of cases” value (Baseline, FAS) was “(0.00%)”. For the same compound, the “SAQ 3rd question: No onset, cases” value (Baseline, FAS) was 0, the “SAQ 3rd question: ≧3 times per week, % of cases” value (Baseline, FAS) was “(62.09%)” and the “SAQ 3rd question: ≧3 times per week, cases” value (Baseline, FAS) was 1076. The “SAQ 3rd question: ≧4 times per day, % of cases” value (Baseline, FAS) was “(3.17%)”, the “SAQ 3rd question: ≧4 times per day, cases” value (Baseline, FAS) was 55 and the “SAQ Question 1-3: Mildly limited, number of patients” value (Baseline, FAS) was 149. For the same compound, the “SAQ Question 1-3: Mildly limited, percent of patients” value (Baseline, FAS) was “(8.57%)”, the “SAQ Question 1-3: Moderately limited, number of patients” value (Baseline, FAS) was 53 and the “SAQ Question 1-3: Moderately limited, percent of patients” value (Baseline, FAS) was “(3.05%)”. For the same compound, the “SAQ Question 1-3: Not limited, number of patients” value (Baseline, FAS) was 1170, the “SAQ Question 1-3: Not limited, percent of patients” value (Baseline, FAS) was “(67.32%)” and the “SAQ Question 1-3: Other reasons, number of patients” value (Baseline, FAS) was 11. For the same compound, the “SAQ Question 1-3: Other reasons, percent of patients” value (Baseline, FAS) was “(0.63%)”, the “SAQ Question 1-3: Severely limited, number of patients” value (Baseline, FAS) was 15 and the “SAQ Question 1-3: Severely limited, percent of patients” value (Baseline, FAS) was “(0.86%)”. The “SAQ Question 1-3: Slightly limited, number of patients” value (Baseline, FAS) was 340, the “SAQ Question 1-3: Slightly limited, percent of patients” value (Baseline, FAS) was “(19.56%)” and the “SAQ Question 1-4: Mildly limited, number of patients” value (Baseline, FAS) was 402. The “SAQ Question 1-4: Mildly limited, percent of patients” value (Baseline, FAS) was “(23.21%)”, the “SAQ Question 1-4: Moderately limited, number of patients” value (Baseline, FAS) was 208 and the “SAQ Question 1-4: Moderately limited, percent of patients” value (Baseline, FAS) was “(12.01%)”. For the same compound, the “SAQ Question 1-4: Not limited, number of patients” value (Baseline, FAS) was 495, the “SAQ Question 1-4: Not limited, percent of patients” value (Baseline, FAS) was “(28.58%)” and the “SAQ Question 1-4: Other reasons, number of patients” value (Baseline, FAS) was 14. For the same compound, the “SAQ Question 1-4: Other reasons, percent of patients” value (Baseline, FAS) was “(0.81%)”, the “SAQ Question 1-4: Severely limited, number of patients” value (Baseline, FAS) was 59 and the “SAQ Question 1-4: Severely limited, percent of patients” value (Baseline, FAS) was “(3.41%)”. The “SAQ Question 1-4: Slightly limited, number of patients” value (Baseline, FAS) was 554, the “SAQ Question 1-4: Slightly limited, percent of patients” value (Baseline, FAS) was “(31.99%)” and the “SAQ Question 1-5: Mildly limited, number of patients” value (Baseline, FAS) was 357. The “SAQ Question 1-5: Mildly limited, percent of patients” value (Baseline, FAS) was “(20.58%)”, the “SAQ Question 1-5: Moderately limited, number of patients” value (Baseline, FAS) was 238 and the “SAQ Question 1-5: Moderately limited, percent of patients” value (Baseline, FAS) was “(13.72%)”. For the same compound, the “SAQ Question 1-5: Not limited, number of patients” value (Baseline, FAS) was 567, the “SAQ Question 1-5: Not limited, percent of patients” value (Baseline, FAS) was “(32.68%)” and the “SAQ Question 1-5: Other reasons, number of patients” value (Baseline, FAS) was 13. The “SAQ Question 1-5: Other reasons, percent of patients” value (Baseline, FAS) was “(0.75%)”, the “SAQ Question 1-5: Severely limited, number of patients” value (Baseline, FAS) was 53 and the “SAQ Question 1-5: Severely limited, percent of patients” value (Baseline, FAS) was “(3.05%)”. The “SAQ Question 1-5: Slightly limited, number of patients” value (Baseline, FAS) was 507, the “SAQ Question 1-5: Slightly limited, percent of patients” value (Baseline, FAS) was “(29.22%)” and the “SAQ Question 1-9: Mildly limited, % of cases” value (Baseline, FAS) was “(14.70%)”. The “SAQ Question 1-9: Mildly limited, cases” value (Baseline, FAS) was 249, the “SAQ Question 1-9: Moderately limited, % of cases” value (Baseline, FAS) was “(21.19%)” and the “SAQ Question 1-9: Moderately limited, cases” value (Baseline, FAS) was 359. The “SAQ Question 1-9: Not limited, % of cases” value (Baseline, FAS) was “(2.36%)” and the “SAQ Question 1-9: Not limited, cases” value (Baseline, FAS) was 40.
